Experiments:
Alternaia brassicicola = assay: Test Example C: Alternaria sooty spot on cabbage; type: in vivo
Source text: Seeds of a test plant (cabbage variety: Shikidori) were planted and cultivated until the cotyledons extended.
<Control Value> Control value=100{1−(n/3)}

Puccinia recondita = assay: Test Example E: Brown rust on wheat; type: in vivo
[1] = test system: Colletotrichum orbiculare; assay: Test Example H: Anthracnose on cucumber; details: for Test H control value: 6 to 10 days after inoculation; for Test H control value class: Anthracnose on cucumber (Sagami Hanjiro), 2.5 ml/pot, assessed 6 to 10 days after inoculation
[2] = test system: Blumeria graminis f. sp. hordei; assay: Test Example D: Powdery mildew on barley; details: for Test D control value class: class of control value
Magnaporthe grisea = assay: whole plant or invertebrate; type: in vivo; details: for Test A control value class: class of control value
Phytophthora infestans = assay: whole plant or invertebrate; type: in vivo; details: for Test F control value class: class of control value
Plasmopara viticola = assay: Test Example G: Downy mildew on vine; details: for Test G control value: 7 to 10 days after inoculation; for Test G control value class: Downy mildew on vine (Neomuscat), 2.5 ml/pot, assessed 7 to 10 days after inoculation
Botrytis cinerea = assay: Test Example B: Gray mold on tomato; details: for Test B control value class: class of control value
[3] = Alternaria sooty spot on cabbage, control value class
[4] = Brown rust on wheat, control value class
[5] = Anthracnose on cucumber, 250 ppm spray
[6] = Powdery mildew on barley, control value class
[7] = Blast on rice, control value class
[8] = Late blight on tomato, control value class
[9] = Downy mildew on vine, 250 ppm spray
[10] = Gray mold on tomato, control value class
[11] = Alternaria sooty spot on cabbage, class of control value
[12] = Brown rust on wheat, class of control value
[13] = 250 ppm drug solution sprayed on test plant
[14] = 250 ppm drug solution sprayed (2.5 ml/pot), cucumber Sagami Hanjiro
[15] = 250 ppm drug solution sprayed (2.5 ml/pot), grape Neomuscat

Compound | Test C control value (Alternaia brassicicola; [3]) | Test E control value (Puccinia recondita; [4]) | Test H control value [1, 5] | Test D control value [2, 6] | Test A control value (Magnaporthe grisea; [7]) | Test F control value (Phytophthora infestans; [8]) | Test G control value (Plasmopara viticola; [9]) | Test B control value (Botrytis cinerea; [10]) | Test C control value class (Alternaia brassicicola; [11]) | Test E control value class (Puccinia recondita; [12]) | Test H control value class ([1]; 250 ppm spray) | Test D control value class ([2]; Powdery mildew on barley) | Test A control value class (Magnaporthe grisea; Blast on rice) | Test F control value class (Phytophthora infestans; Late blight on tomato) | Test G control value class (Plasmopara viticola; 250 ppm spray) | Test B control value class (Botrytis cinerea; Gray mold on tomato) | also measured
CCc1cc(Cl)c(=O)n(CC)c1-c1ccc(OC)cc1Br [compound 345] | H (more than 50% control value) | H (more than 50% control value) | H (more than 50% control value) | L (50% or less control value) | H (more than 50% control value) | L (50% or less control value) | H (more than 50% control value) | H (more than 50% control value) |  |  |  |  |  |  |  |  | 
CCn1c(-c2c(F)cc(OC)cc2F)c(C(C)(CC(C)C)OC)cc(Cl)c1=O (racemic) [compound 165] |  |  |  |  |  |  |  |  | H (more than 50% control value) | H (more than 50% control value) | H (more than 50% control value) | H (more than 50% control value) | H (more than 50% control value) | L (50% or less control value) | H (more than 50% control value) | H (more than 50% control value) | 
CCCc1ccc(=O)n(C)c1-c1ccc(OC)cc1Br [compound 416] |  |  |  |  |  |  |  |  |  |  |  |  |  |  |  |  | Test C control value (Alternaia brassicicola; [13]): L (50% or less control value); Test E control value (Puccinia recondita; [13]): H (more than 50% control value); Test H control value [1, 14]: L (50% or less control value); Test D control value [2, 13]: L (50% or less control value); Test A control value (Magnaporthe grisea; [13]): L (50% or less control value); Test F control value (Phytophthora infestans; [13]): L (50% or less control value); Test G control value (Plasmopara viticola; [15]): L (50% or less control value); Test B control value (Botrytis cinerea; [13]): L (50% or less control value)
CCn1c(-c2ccc(O)cc2F)c(CC(C)C)cc(Cl)c1=O [compound 118] |  |  |  |  |  |  |  |  | H (more than 50% control value) | H (more than 50% control value) | L (50% or less control value) | L (50% or less control value) | L (50% or less control value) | L (50% or less control value) | L (50% or less control value) | H (more than 50% control value) | 
CCn1c(-c2c(F)cc(F)cc2F)c(CN(OC)C(=O)OC)cc(Cl)c1=O [compound 133] |  |  |  |  |  |  |  |  | H (more than 50% control value) | H (more than 50% control value) | H (more than 50% control value) | H (more than 50% control value) | H (more than 50% control value) | L (50% or less control value) | H (more than 50% control value) | H (more than 50% control value) | 
CCC(=O)c1cc(Cl)c(=O)n(C)c1-c1c(F)cc(F)cc1F [compound 495] |  |  |  |  |  |  |  |  |  |  |  |  |  |  |  |  | Test C control value (Alternaia brassicicola; [13]): H (more than 50% control value); Test E control value (Puccinia recondita; [13]): H (more than 50% control value); Test H control value [1, 14]: L (50% or less control value); Test D control value [2, 13]: H (more than 50% control value); Test A control value (Magnaporthe grisea; [13]): L (50% or less control value); Test F control value (Phytophthora infestans; [13]): L (50% or less control value); Test G control value (Plasmopara viticola; [15]): L (50% or less control value); Test B control value (Botrytis cinerea; [13]): H (more than 50% control value)
CCn1c(-c2ccc(F)cc2)c(CC(C)C)cc(Br)c1=O [compound 148] |  |  |  |  |  |  |  |  | H (more than 50% control value) | H (more than 50% control value) | H (more than 50% control value) | H (more than 50% control value) | H (more than 50% control value) | L (50% or less control value) | H (more than 50% control value) | H (more than 50% control value) | 
CCn1c(-c2c(F)cc(OC)cc2F)c(C(OC)C(C)C)cc(Cl)c1=O (centres unmarked) [compound 71] |  |  |  |  |  |  |  |  | H (more than 50% control value) | H (more than 50% control value) | H (more than 50% control value) | H (more than 50% control value) | H (more than 50% control value) | L (50% or less control value) | L (50% or less control value) | H (more than 50% control value) | 
CCn1c(-c2c(F)cccc2F)c(C(C)(O)C(C)C)cc(Cl)c1=O (centres unmarked) [Compound No. 183, 3-chloro-6-(2,6-difluorophenyl)-1-ethyl-5-(2-hydroxy-3-methylbutan-2-yl)pyridin-2(1H)-one] |  |  |  |  |  |  |  |  |  |  |  |  |  |  |  |  | pest or weed control at 250 µg/mL (Alternaia brassicicola; Brassica oleracea, topical, Alternaria sooty spot on cabbage, class of control value, read-out: Test C control value class): > 50%; pest or weed control at 250 µg/mL (Puccinia recondita; Puccinia recondita, topical, Brown rust on wheat, class of control value, read-out: Test E control value class): > 50%; pest or weed control at 250 ppm ([1]; Colletotrichum orbiculare, in Cucumis sativus, topical, read-out: Test H control value class): > 50%; pest or weed control at 250 µg/mL ([2]; Blumeria graminis, in Hordeum vulgare, topical, read-out: Test D control value class): > 50%; pest or weed control at 250 µg/mL (Magnaporthe grisea; Pyricularia oryzae, in Oryza sativa, read-out: Test A control value class): > 50%; pest or weed control at 250 µg/mL (Phytophthora infestans; Phytophthora infestans, in Solanum lycopersicum, topical, read-out: Test F control value class): > 50%; pest or weed control at 250 ppm (Plasmopara viticola; Plasmopara viticola, topical, read-out: Test G control value class): > 50%; pest or weed control at 250 µg/mL (Botrytis cinerea; Botrytis cinerea, in Solanum lycopersicum, topical, read-out: Test B control value class): > 50%
CCCCCCCc1cc(Cl)c(=O)n(CC)c1-c1ccc(F)cc1Cl [compound 268] | L (50% or less control value) | L (50% or less control value) | L (50% or less control value) | H (more than 50% control value) | L (50% or less control value) | L (50% or less control value) | L (50% or less control value) | L (50% or less control value) |  |  |  |  |  |  |  |  | 
CCOc1cc(F)c(-c2c(C(C)(OC)C(C)C)cc(Cl)c(=O)n2CC)c(F)c1 (centres unmarked) [compound 227] | H (more than 50% control value) | H (more than 50% control value) | H (more than 50% control value) | H (more than 50% control value) | H (more than 50% control value) | L (50% or less control value) | H (more than 50% control value) | H (more than 50% control value) |  |  |  |  |  |  |  |  | 
COc1cc(F)c(-c2c(C(C)(OC)C(C)C)cc(Cl)c(=O)n2C)c(F)c1 (centres unmarked) [compound 488] |  |  |  |  |  |  |  |  |  |  |  |  |  |  |  |  | Test C control value (Alternaia brassicicola; [13]): H (more than 50% control value); Test E control value (Puccinia recondita; [13]): H (more than 50% control value); Test H control value [1, 14]: H (more than 50% control value); Test D control value [2, 13]: L (50% or less control value); Test A control value (Magnaporthe grisea; [13]): H (more than 50% control value); Test F control value (Phytophthora infestans; [13]): L (50% or less control value); Test G control value (Plasmopara viticola; [15]): L (50% or less control value); Test B control value (Botrytis cinerea; [13]): H (more than 50% control value)
CCc1cc(Br)c(=O)n(CC)c1-c1ccc(F)cc1C [compound 352] | H (more than 50% control value) | H (more than 50% control value) | H (more than 50% control value) | H (more than 50% control value) | H (more than 50% control value) | L (50% or less control value) | L (50% or less control value) | H (more than 50% control value) |  |  |  |  |  |  |  |  | 

— patent publication US11147272B2, “Pyridone compounds and agricultural and horticultural fungicides comprising the same as active ingredients” (MITSUI CHEMICALS AGRO, INC., priority 2017, dated 2021)
